Key:
[1] = biological target: T1, human ALK5 (kinase domain, ALK5 T204D) (Homo sapiens, UniProt P36897, T204D); assay: ALK5 kinase assay ([33P] phosphate incorporation into casein); assay type: biochemical; conditions: casein substrate, 1 μM unlabelled ATP
T1 construct: The kinase domain of human ALK5 (amino acids 200-503); made in house; host or cells: insect cells (baculovirus)
T1 sequence (P36897 200-503 T204D): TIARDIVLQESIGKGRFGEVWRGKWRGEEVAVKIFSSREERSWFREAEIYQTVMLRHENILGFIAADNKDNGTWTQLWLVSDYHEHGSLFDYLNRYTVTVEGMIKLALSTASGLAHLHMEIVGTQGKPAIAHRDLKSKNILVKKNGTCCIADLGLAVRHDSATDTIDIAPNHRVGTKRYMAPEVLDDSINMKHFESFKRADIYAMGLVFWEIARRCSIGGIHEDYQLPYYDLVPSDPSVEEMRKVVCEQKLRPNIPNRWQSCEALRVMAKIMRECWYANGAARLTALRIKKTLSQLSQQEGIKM
Outline: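 His-tagged human ALK5 T204D kinase domain (aa 200-503, constitutively active, baculovirus/insect-cell expressed), 50 ng/well, preincubated 10 min with compound and dephosphorylated casein (200 μg/well) in Tris pH 7.4/MgCl2/MnCl2. Reaction started with 1 μM ATP plus [33P]ATP, 50 min at room temperature, EDTA-stopped; casein-bound 33P counted by scintillation after filter capture.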

[2] = system: dimethylnitrosamine induced liver fibrosis; conditions: cited from earlier work
[3] = system: bleomycin-induced pulmonary fibrosis; conditions: bleomycin-treated rats; cited from earlier work
[4] = given therapeutically to rat, 3 weeks treatment

Work on Cc1cccc(-c2cc(-c3cncc(-c4ccc(C(C)(C)N)cc4C)c3)c3cc[nH]c3n2)n1 [Example 164, 1-Methyl-1-(3-methyl-4-{5-[6-(6-methyl-pyridin-2-yl)-1H-pyrrolo[2,3-b]pyridin-4-yl]-pyridin-3-yl}-phenyl)-ethylamine] yielded an IC50 [1] of 6.3 nM.

In the case of c1ccc(-c2cc(-c3cn[nH]c3-c3ccccn3)ccn2)cc1 [GW6604], the “inhibition of extracellular matrix deposition” value [2, 4] is given as 60%, the “prevention of death rate” value [2, 4] is given as 40% and the side effects ([2]; rat, in vivo) is given as “no obvious side effects”.

B1: follistatin: "follistatin, an antagonist of activin signalling" (protein, UniProt P19883 30-344, looked up)
Follistatin: GNCWLRQAKNGRCQVLYKTELSKEECCSTGRLSTSWTEEDVNDNTLFKWMIFNGGAPNCIPCKETCENVDCGPGKKCRMNKKNKPRCVCAPDCSNITWKGPVCGLDGKTYRNECALLKARCKEQPELEVQYQGRCKKTCRDVFCPGSSTCVVDQTNNAYCVTCNRICPEPASSEQYLCGNDGVTYSSACHLRKATCLLGRSIGLAYEGKCIKAKSCEDIQCTGGKKCLWDFKVGRGRCSLCDELCPDSKSDEPVCASDNATYASECAMKEAACSSGVLLEVKHSGSCNSISEDTEEEEEDEDQDYSFPISSILEW
For B1, the lung fibrosis [3] is given as “attenuated lung fibrosis” and the “number of macrophages and neutrophils in bronchoalveolar lavage” value [3] is given as “significantly reduced”.
